The results in this text go back to patent US9926294B2, “Pesticidally active heterocyclic derivatives with sulphur containing substituents” (Syngenta Participations AG, priority 2014, dated 2018).

Format in all cases: in vivo
Test [1] deals with Plutella xylostella (diamond back moth). Put plainly: Example B3: Plutella xylostella larvicide, feeding/residual contact, preventive (artificial diet). To be noted: 120 h, L2 larvae on artificial diet, 5 days incubation, read-out: activity (larval mortality, antifeedant, growth regulation). The method, then: Example B3: Activity Against Plutella xylostella (Diamond Back Moth)
(Larvicide, Feeding/Residual Contact Activity, Preventive)
24-well microtiter plate (MTP) with artificial diet was treated with test solutions by pipetting. After drying, the MTPs were infested with L2 larvae (10-15 per well). After an incubation period of 5 days, samples were checked for larval mortality, antifeedant and growth regulation.

Test [2] concerns Spodoptera littoralis (Egyptian cotton leaf worm). Put plainly: Example B1: Spodoptera littoralis larvicide, feeding/residual contact, preventive (cotton leaf discs). The following applies: foliar, 72 h, L1 larvae on sprayed cotton leaf discs, 3 days after treatment, read-out: activity (mortality, repellent effect, feeding behaviour, growth regulation). The text has this:
Example B1: Activity Against Spodoptera littoralis (Egyptian Cotton Leaf Worm)
Larvicide, Feeding/Residual Contact Activity, Preventive
Cotton leaf discs were placed on agar in a 24-well microtiter plate and sprayed with test solutions.
After drying, the leaf discs were infested with 5 L1 larvae. The samples were checked for mortality, repellent effect, feeding behaviour, and growth regulation 3 days after treatment (DAT).

The subject of test [3] is Myzus persicae (green peach aphid). As to the kind of experiment: Example B7: Myzus persicae systemic/feeding activity, curative, mixed population (pea seedlings). To be noted: 144 h, roots of infested pea seedlings in test solution, 6 days after introduction, read-out: activity (mortality, special effects on the plant). The text has this:
Example B7: Activity Against Myzus persicae (Green Peach Aphid)
(Systemic/Feeding Activity, Curative), Mixed Population
Roots of pea seedlings, infested with an aphid population of mixed ages, were placed directly in the test solutions. 6 days after introduction, samples were checked for mortality and special effects on the plant.

The test system is the same in test [4]. As to the kind of experiment: Example B5: Myzus persicae feeding/residual contact, preventive, mixed population (sunflower leaf discs). The following applies: foliar, 144 h, mixed population on sprayed sunflower leaf discs, 6 DAT, read-out: activity (mortality, special effects). As for the experimental part:
Example B5: Activity Against Myzus persicae (Green Peach Aphid)
(Feeding/Residual Contact Activity, Preventive), Mixed Population
Sunflower leaf discs were placed on agar in a 24-well microtiter plate and sprayed with test solutions. After drying, the leaf discs were infested with an aphid population of mixed ages. After an incubation period of 6 DAT, samples were checked for mortality and special effects (e.g. phytotoxicity).

For test [5], the system named is Diabrotica balteata (corn root worm). As to the kind of experiment: Example B4: Diabrotica balteata larvae L2 on maize sprouts, feeding/contact, preventative. To be noted: 120 h, L2 larvae on sprayed maize sprouts, 5 days incubation, read-out: activity (larval mortality, growth regulation). The method, then:
Example B4: Activity Against Diabrotica Balteata (Corn Root Worm)
(Larvae L2 on Maize Sprouts, Feeding/Contact, Preventative)
Maize sprouts, placed on an agar layer in 24 well micro titer plates were treated with test solutions by spraying. After drying, the MTPs were infested with L2 larvae (6-10 per well). After an incubation period of 5 days, samples were checked for larval mortality and growth regulation.

Test [6] concerns Myzus persicae (green peach aphid). Put plainly: Example B6: Myzus persicae feeding activity sachet test, mixed population. To be noted: 120 h, sachet test in sucrose solution, 5 days after infestation. The source says:
Example B6: Activity Against Myzus persicae (Green Peach Aphid)
(Feeding Activity Sachet Test), Mixed Population
Test compounds were applied by pipette into 24 well plates and mixed with Sucrose solution. The plates were closed with a stretched Parafilm. A plastic stencil with 24 holes is placed onto the plate and infested pea seedlings were placed directly on the Parafilm. The infested plate is closed with a gel blotting paper and another plastic stencil and then turned upside down. 5 days after infestation the samples were checked on mortality. Application rate: 12.5 ppm.

The subject of test [7] is Spodoptera littoralis (Egyptian cotton leaf worm). As to the kind of experiment: Example B2: Spodoptera littoralis systemic activity (lettuce on agar). The following applies: 120 h, systemic via lettuce roots, 5 days after infestation, read-out: activity (mortality, repellent effect, feeding behavior, growth regulation). The source says:
Example B2: Activity Against Spodoptera littoralis (Egyptian Cotton Leaf Worm)
Test compounds were applied by pipette into 24 well plates and mixed with agar. Lettuce seeds were placed on the agar and the multi well plate is closed by another plate which contains also agar. After 7 days the roots have absorbed the compound and the lettuce has grown into the lid plate. The lettuce leaves were now cut off into the lid plate. Spodoptera eggs were pipetted through a plastic stencil on a humid gel blotting paper and the plate closed with it. The samples are checked for mortality, repellent effect, feeding behavior, and growth regulation 5 days after infestation.

The subject of test [8] is Bemisia tabaci (cotton white fly). Put plainly: Example B9: Bemisia tabaci adulticide contact activity, preventative. To be noted: foliar, 168 h, adult white flies on sprayed cotton leaf discs, 7 DAT, read-out: activity (mortality, special effects). The method, then: Example B9: Activity Against Bemisia tabaci (Cotton White Fly)
(Adulticide Contact Activity, Preventative), Adult
Cotton leaf discs were placed on agar in a 24-well microtiter plate and sprayed with test solutions. After drying, the leaf discs were infested with adult white flies. After an incubation period of 7 DAT, samples were checked for mortality and special effects (e.g. phytotoxicity).

Usually mortality stands for the percentage killed. Take `CCS(=O)(=O)c1cc(C(F)(F)F)cnc1-c1nnc(-c2cc(C(F)(F)F)cc(C(F)(F)F)c2)n1C` [Compound P12]: the mortality at 400 ppm in test [1] and in test [2] was over 80% throughout.
For the compound `Cn1c(-c2cc(C(F)(F)F)ccn2)nnc1-c1ncc(C(F)(F)F)cc1S(C)(=O)=O` [Compound P71], the mortality at 400 ppm in test [1], in test [2], in test [4] and in test [5] was over 80% each time. The mortality at 24 ppm in test [3] is at least 80%.
Consider `CCS(=O)(=O)c1cc(C(F)(F)F)cnc1-c1nnc(-c2ccc(C#N)cc2)n1C` [Compound P35], for which, in test [3], the mortality at 24 ppm is at least 80%. Also, in test [5], the mortality at 400 ppm was over 80%.
Regarding `CCS(=O)(=O)c1cc(C(F)(F)F)cnc1-c1nnc(-c2ccc(OC(F)(F)F)cc2)n1C` [Compound P33], the mortality at 400 ppm in test [1], in test [2] and in test [4] was over 80% throughout. Moreover, the mortality at 12.5 ppm in test [6] and in test [7] was at least 80% each time.
Regarding `CCS(=O)(=O)c1cc(C(F)(F)F)cnc1-c1nnc(-c2ccc(C(F)(F)F)cc2)n1C` [Compound P5], the mortality at 400 ppm in test [1], in test [2] and in test [5] was over 80% throughout. Besides, the mortality at 12.5 ppm in test [7] was at least 80%.
In test [6], `CCS(=O)(=O)c1cc(C(F)(F)F)cnc1-c1nnc(-c2ccc(Cl)c(F)c2)n1C` [Compound P22] registered a mortality at 12.5 ppm of at least 80%. For the same compound, the mortality at 400 ppm in test [2], in test [4] and in test [5] was over 80% throughout.
Turning to `CCS(=O)(=O)c1cc(C(F)(F)F)cnc1-c1nnc(-c2ccnc(C(F)(F)F)c2)n1C` [Compound P8], the mortality at 400 ppm in test [8] and in test [4] was over 80% in each case. In addition, in test [3], the mortality at 24 ppm was at least 80%.
For `CCS(=O)(=O)c1cc(C(F)(F)F)cnc1-c1nnc(-c2cc(Cl)cc(Cl)c2)n1C` [Compound P16], the mortality at 400 ppm in test [2], in test [4] and in test [5] was over 80% each time.
On to `CCS(=O)(=O)c1cc(C(F)(F)F)cnc1-c1nnc(-c2cccc(C#N)c2)n1C` [Compound P34], for which, in test [3], the mortality at 24 ppm is at least 80%. The mortality at 400 ppm in test [4] is over 80%.
Turning to `CCS(=O)(=O)c1cc(C(F)(F)F)cnc1-c1nnc(-c2cccc(OC(F)(F)F)c2)n1C` [Compound P20], in test [6], the mortality at 12.5 ppm was at least 80%. For the same compound, the mortality at 400 ppm in test [2], in test [4] and in test [5] was over 80% in each case.
For `CSc1cc(C(F)(F)F)cnc1-c1nnc(-c2cc(C(F)(F)F)ccn2)n1C` [Compound P70], in test [5], the mortality at 400 ppm is over 80%.
In the case of `CCS(=O)(=O)c1cc(C(F)(F)F)cnc1-c1nnc(-c2cccc(C(F)(F)Cl)c2)n1C` [Compound P24], the mortality at 400 ppm in test [1], in test [2], in test [4] and in test [5] was over 80% in each case. Moreover, in test [6], the mortality at 12.5 ppm was at least 80%.
With `CCS(=O)(=O)c1cc(OC(F)F)cnc1-c1nnc(-c2cc(C(F)(F)F)ccn2)n1C` [Compound P66], the mortality at 400 ppm in test [1], in test [2], in test [4] and in test [5] was over 80% throughout. The mortality at 24 ppm in test [3] was at least 80%. Further, in test [7], the mortality at 12.5 ppm is at least 80%.
Turning to `CCS(=O)(=O)c1cc(OC(F)F)cnc1-c1nnc(-c2ccc(C(F)(F)F)nc2)n1C` [Compound P58], the mortality at 400 ppm in test [8] and in test [4] was over 80% each time. For the same compound, the mortality at 24 ppm in test [3] is at least 80%.
With `CCS(=O)(=O)c1cc(C(F)(F)F)ccc1-c1nnc(-c2ccc(C(F)(F)F)nc2)n1C` [Compound P55], the mortality at 24 ppm in test [3] was at least 80%. Further, the mortality at 400 ppm in test [4] and in test [5] was over 80% each time.
As to `CCSc1cc(C(F)(F)F)cnc1-c1nnc(-c2cc(C(F)(F)F)ccn2)n1CC` [Compound P64], the mortality at 400 ppm in test [2] and in test [5] was over 80% in each case.
For the compound `CCSc1cc(C(F)(F)F)ccc1-c1nnc(-c2ccc(C(F)(F)F)nc2)n1C` [Compound P54], the mortality at 400 ppm in test [5] was over 80%.
The compound `CCS(=O)(=O)c1cc(C(F)(F)F)cnc1-c1nnc(-c2cccc3c2OC(F)(F)O3)n1C` [Compound P30] registered a mortality at 12.5 ppm in test [6] of at least 80%. In test [4], the mortality at 400 ppm was over 80%.
Turning to `CCS(=O)(=O)c1cc(C(F)(F)F)cnc1-c1nnc(-c2ccc(Cl)c(Cl)c2)n1C` [Compound P46], the mortality at 400 ppm in test [2], in test [4] and in test [5] was over 80% each time.
`CCS(=O)(=O)c1cc(C(F)(F)F)cnc1-c1nnc(-c2cc(C(F)(F)F)cc(Cl)n2)n1C` [Compound P63]: the mortality at 400 ppm in test [2] and in test [5] was over 80% each time.
For the compound `CCS(=O)(=O)c1cc(C(F)(F)F)cnc1-c1nnc(-c2cccc(C(F)(F)F)c2)n1C` [Compound P7], the mortality at 400 ppm in test [1], in test [8], in test [2], in test [4] and in test [5] was over 80% in each case. Also, the mortality at 24 ppm in test [3] is at least 80%. Moreover, the mortality at 12.5 ppm in test [6] and in test [7] was at least 80% in each case.
Take `CCS(=O)(=O)c1cc(C(F)(F)F)cnc1-c1nnc(-c2cc(C(F)(F)F)ccc2F)n1C` [Compound P19]: the mortality at 400 ppm in test [4] is over 80%.
For the compound `CCSc1cc(C(F)(F)F)cnc1-c1nnc(-c2cccc(C(F)(F)F)n2)n1C` [Compound P49], the mortality at 400 ppm in test [8] is over 80%.
In test [6], `CCS(=O)(=O)c1cc(C(F)(F)F)cnc1-c1nnc(-c2ccc(F)c(Cl)c2)n1C` [Compound P15] returned a mortality at 12.5 ppm of at least 80%. Moreover, the mortality at 400 ppm in test [2], in test [4] and in test [5] was over 80% throughout.
Turning to `CCS(=O)(=O)c1cc(C(F)(F)F)cnc1-c1nnc(-c2ccc(C(F)(F)F)cn2)n1C` [Compound P10], the mortality at 400 ppm in test [2] and in test [5] was over 80% throughout.
`CCS(=O)(=O)c1cc(C(F)(F)F)cnc1-c1nnc(-c2ccc3c(c2)OC(F)(F)O3)n1C` [Compound P56]: the mortality at 400 ppm in test [2] and in test [5] was over 80% each time.
As for `CCS(=O)(=O)c1cc(C(F)(F)F)cnc1-c1nnc(-c2ccc(C(F)(C(F)(F)F)C(F)(F)F)cc2)n1C` [Compound P21], the mortality at 400 ppm in test [2] and in test [5] was over 80% each time.
`CCS(=O)(=O)c1cc(C(F)(F)F)cnc1-c1nnc(-c2ccc(C(F)(F)F)c(C(F)(F)F)c2)n1C` [Compound P61, 2-[5-[3,4-bis(trifluoromethyl)phenyl]-4-methyl-1,2,4-triazol-3-yl]-3-ethylsulfonyl-5-(trifluoromethyl)pyridine]: the mortality at 400 ppm in test [1], in test [8], in test [2], in test [4] and in test [5] was over 80% each time.
As to `CCS(=O)(=O)c1cc(C(F)(F)F)cnc1-c1nnc(-c2ccc(C(F)F)cc2)n1C` [Compound P53], in test [4], the mortality at 400 ppm is over 80%.
